Data: ChEMBL document CHEMBL1909046, “DrugMatrix in vitro pharmacology data”

Experiments:
[1] = target: T1, Nitric oxide synthase, inducible (Mus musculus, UniProt P29477); set-up: species or system Escherichia coli;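 further: inhibition of iNOS enzyme activity measured with L-arginine as substrate; in other assays of this panel Not Active means under 50% inhibition at 10 µM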
T1 sequence (P29477 whole entry): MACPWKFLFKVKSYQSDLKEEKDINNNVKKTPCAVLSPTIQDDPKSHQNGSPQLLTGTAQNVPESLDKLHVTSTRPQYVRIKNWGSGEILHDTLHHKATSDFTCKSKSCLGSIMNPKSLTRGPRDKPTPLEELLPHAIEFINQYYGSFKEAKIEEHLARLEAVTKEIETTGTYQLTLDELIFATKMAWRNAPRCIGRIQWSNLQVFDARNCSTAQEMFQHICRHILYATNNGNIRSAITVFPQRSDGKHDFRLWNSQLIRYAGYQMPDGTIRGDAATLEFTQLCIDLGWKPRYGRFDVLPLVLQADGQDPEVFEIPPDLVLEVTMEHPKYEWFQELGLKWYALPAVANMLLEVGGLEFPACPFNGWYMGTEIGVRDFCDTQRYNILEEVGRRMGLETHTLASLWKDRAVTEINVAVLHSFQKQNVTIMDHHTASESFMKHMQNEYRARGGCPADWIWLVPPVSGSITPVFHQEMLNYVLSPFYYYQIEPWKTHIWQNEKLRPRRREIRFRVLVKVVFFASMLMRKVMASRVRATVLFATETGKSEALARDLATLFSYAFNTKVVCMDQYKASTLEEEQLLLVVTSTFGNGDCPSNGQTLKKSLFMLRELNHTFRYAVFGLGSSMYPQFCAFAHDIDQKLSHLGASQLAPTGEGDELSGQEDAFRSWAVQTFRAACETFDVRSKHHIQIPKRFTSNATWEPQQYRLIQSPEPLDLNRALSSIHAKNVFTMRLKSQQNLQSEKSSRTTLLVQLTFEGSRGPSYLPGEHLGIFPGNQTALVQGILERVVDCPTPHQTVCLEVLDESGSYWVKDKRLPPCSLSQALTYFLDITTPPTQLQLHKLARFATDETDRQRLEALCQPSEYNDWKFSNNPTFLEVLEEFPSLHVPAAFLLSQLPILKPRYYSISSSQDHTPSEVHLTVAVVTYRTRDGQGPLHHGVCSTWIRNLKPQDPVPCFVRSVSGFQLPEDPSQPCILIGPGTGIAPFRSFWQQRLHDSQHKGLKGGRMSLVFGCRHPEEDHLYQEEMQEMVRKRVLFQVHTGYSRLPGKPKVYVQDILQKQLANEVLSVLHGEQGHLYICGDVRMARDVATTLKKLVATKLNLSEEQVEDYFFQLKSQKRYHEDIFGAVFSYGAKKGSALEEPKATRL

[2] = target: T2, C-X-C chemokine receptor type 1 (Homo sapiens, UniProt P25024); further: in other assays of this panel Not Active means under 50% inhibition at 10 µM
T2 sequence (P25024 whole entry): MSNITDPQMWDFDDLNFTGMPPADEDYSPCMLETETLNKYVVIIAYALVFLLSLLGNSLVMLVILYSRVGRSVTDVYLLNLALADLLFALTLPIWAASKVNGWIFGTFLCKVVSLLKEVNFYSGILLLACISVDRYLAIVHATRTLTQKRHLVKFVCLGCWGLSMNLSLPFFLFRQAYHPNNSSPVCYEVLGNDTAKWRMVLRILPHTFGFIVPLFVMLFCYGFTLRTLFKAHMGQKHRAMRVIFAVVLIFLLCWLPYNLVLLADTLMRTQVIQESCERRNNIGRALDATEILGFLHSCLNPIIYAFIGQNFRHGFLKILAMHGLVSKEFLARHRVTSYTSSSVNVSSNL

[3] = target: Melanocortin receptor 5 (Homo sapiens, UniProt P33032); type: cell membranes, HEK293, Membrane; conditions: hek293; further: in other assays of this panel Not Active means under 50% inhibition at 10 µM
Chain of Melanocortin receptor 5 (P33032 whole entry): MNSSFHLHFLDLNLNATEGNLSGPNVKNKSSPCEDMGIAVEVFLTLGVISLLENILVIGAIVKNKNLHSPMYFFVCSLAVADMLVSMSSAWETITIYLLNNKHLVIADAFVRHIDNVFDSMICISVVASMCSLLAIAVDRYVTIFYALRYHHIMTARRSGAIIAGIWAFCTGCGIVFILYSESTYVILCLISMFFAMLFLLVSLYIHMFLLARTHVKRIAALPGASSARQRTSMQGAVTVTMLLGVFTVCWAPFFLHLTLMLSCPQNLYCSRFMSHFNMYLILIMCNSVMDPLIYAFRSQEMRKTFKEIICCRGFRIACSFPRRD

[4] = DRUGMATRIX: Phosphodiesterase PDE3 enzyme inhibition (substrate: [3H]cAMP + cAMP); type: tissue-based, Homo sapiens; conditions: platelet; Not Active = under 50% inhibition at 10 µM
[5] = target: T3, Cytochrome P450 2A6 (Homo sapiens, UniProt P11509); conditions: bti-tn-5b1-4; further: in other assays of this panel Not Active means under 50% inhibition at 10 µM
T3 sequence (P11509 whole entry): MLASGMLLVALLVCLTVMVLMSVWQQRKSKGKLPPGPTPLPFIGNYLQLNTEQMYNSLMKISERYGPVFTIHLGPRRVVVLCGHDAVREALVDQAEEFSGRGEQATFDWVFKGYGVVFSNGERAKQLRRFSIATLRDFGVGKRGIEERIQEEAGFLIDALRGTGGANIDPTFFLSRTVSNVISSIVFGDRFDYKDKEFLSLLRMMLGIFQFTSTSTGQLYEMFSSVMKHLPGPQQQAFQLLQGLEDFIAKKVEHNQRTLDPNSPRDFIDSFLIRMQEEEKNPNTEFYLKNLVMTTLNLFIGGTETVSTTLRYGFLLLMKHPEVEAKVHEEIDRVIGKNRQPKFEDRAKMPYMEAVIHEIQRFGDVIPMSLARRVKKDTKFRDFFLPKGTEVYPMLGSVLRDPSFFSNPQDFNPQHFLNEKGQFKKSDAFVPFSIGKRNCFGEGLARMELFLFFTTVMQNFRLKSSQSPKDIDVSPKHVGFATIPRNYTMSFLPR

[6] = target: Cytochrome P450 2C9 (Homo sapiens, UniProt P11712); conditions: bti-tn-5b1-4; further: in other assays of this panel Not Active means under 50% inhibition at 10 µM
Chain of Cytochrome P450 2C9 (P11712 whole entry): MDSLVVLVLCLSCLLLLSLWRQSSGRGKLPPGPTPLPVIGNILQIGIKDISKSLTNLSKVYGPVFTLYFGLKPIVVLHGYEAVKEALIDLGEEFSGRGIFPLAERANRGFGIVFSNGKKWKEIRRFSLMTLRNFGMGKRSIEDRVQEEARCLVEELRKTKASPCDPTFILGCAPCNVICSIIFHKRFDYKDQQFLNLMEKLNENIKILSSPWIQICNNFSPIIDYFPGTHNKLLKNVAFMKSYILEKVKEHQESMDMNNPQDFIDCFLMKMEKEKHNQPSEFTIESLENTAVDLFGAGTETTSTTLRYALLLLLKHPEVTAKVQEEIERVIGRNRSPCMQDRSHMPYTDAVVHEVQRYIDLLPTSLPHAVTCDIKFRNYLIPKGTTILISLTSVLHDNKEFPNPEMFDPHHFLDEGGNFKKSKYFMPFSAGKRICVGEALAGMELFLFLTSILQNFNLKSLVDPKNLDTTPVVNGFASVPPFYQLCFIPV

[7] = target: T4, Polyunsaturated fatty acid lipoxygenase ALOX15 (Oryctolagus cuniculus, UniProt P12530); test: biochemical; type: tissue-based, Reticulocytes
T4 sequence (P12530 whole entry): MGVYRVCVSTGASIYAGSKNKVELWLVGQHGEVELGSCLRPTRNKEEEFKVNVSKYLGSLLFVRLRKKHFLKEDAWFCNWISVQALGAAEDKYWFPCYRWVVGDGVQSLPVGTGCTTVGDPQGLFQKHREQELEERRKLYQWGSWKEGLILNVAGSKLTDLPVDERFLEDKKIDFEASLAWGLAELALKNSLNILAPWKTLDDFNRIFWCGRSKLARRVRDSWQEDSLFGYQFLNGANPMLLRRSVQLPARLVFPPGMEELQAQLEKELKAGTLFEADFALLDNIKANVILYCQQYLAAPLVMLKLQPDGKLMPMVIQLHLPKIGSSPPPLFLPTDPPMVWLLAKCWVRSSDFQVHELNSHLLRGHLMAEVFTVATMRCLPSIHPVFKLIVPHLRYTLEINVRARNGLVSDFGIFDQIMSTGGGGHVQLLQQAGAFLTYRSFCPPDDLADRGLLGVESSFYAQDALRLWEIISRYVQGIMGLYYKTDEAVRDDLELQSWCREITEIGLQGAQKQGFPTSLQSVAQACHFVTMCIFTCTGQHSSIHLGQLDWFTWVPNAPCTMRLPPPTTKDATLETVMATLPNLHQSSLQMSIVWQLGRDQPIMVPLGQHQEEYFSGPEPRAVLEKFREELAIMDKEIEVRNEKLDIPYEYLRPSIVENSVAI

SMILES	IC50 [1]	IC50 [2]	IC50 [3]	IC50 [4]	Ki [4]	IC50 [5]	Ki [5]	IC50 [6]	Ki [6]	IC50 ([7]; reticulocytes)	IC50 ([7]; read-out: IC50) [nM]
CC(=O)O[C@@]12CO[C@@H]1C[C@H](O)[C@@]1(C)C(=O)[C@H](O)C3=C(C)[C@@H](OC(=O)[C@H](O)[C@@H](NC(=O)OC(C)(C)C)c4ccccc4)C[C@@](O)([C@@H](OC(=O)c4ccccc4)[C@H]21)C3(C)C.O.O.O [DOCETAXEL]	Not Active	Not Active	Not Active	Not Active	Not Active	Not Active	Not Active	Not Active	Not Active	Not Active	–
COc1cc2nc(N3CCN(C(=O)C4COc5ccccc5O4)CC3)nc(N)c2cc1OC (stereo not given) [DOXAZOSIN]	Not Active	Not Active	Not Active	Not Active	Not Active	Not Active	Not Active	Not Active	Not Active	Not Active	–
C[C@H]1c2cccc(O)c2C(=O)C2=C(O)[C@]3(O)C(=O)C(C(N)=O)=C(O)[C@@H](N(C)C)[C@@H]3[C@@H](O)[C@@H]21.O [DOXYCYCLINE]	Not Active	Not Active	Not Active	Not Active	Not Active	Not Active	Not Active	Not Active	Not Active	Not Active	–
O=C(CCCN1CC=C(n2c(=O)[nH]c3ccccc32)CC1)c1ccc(F)cc1 [DROPERIDOL]	Not Active	Not Active	Not Active	Not Active	Not Active	Not Active	Not Active	Not Active	Not Active	Not Active	–
CC(C)[C@H]1C(=O)N2CCC[C@H]2[C@]2(O)O[C@](NC(=O)[C@@H]3C=C4c5cccc6[nH]cc(c56)C[C@H]4N(C)C3)(C(C)C)C(=O)N12 [ERGOCORNINE]	Not Active	Not Active	Not Active	Not Active	Not Active	Not Active	Not Active	Not Active	Not Active	Not Active	–
OC(Cn1cncn1)(Cn1cncn1)c1ccc(F)cc1F [FLUCONAZOLE]	Not Active	Not Active	Not Active	Not Active	Not Active	Not Active	Not Active	Not Active	Not Active	Not Active	–
CC(C)C(=O)Nc1ccc([N+](=O)[O-])c(C(F)(F)F)c1 [FLUTAMIDE]	Not Active	Not Active	Not Active	Not Active	Not Active	Not Active	Not Active	Not Active	Not Active	Not Active	–
CC1(C)O[C@@H]2C[C@H]3[C@@H]4CCC5=CC(=O)CC[C@]5(C)[C@@]4(F)[C@@H](O)C[C@]3(C)[C@]2(C(=O)CCl)O1 [HALCINONIDE]	Not Active	Not Active	Not Active	Not Active	Not Active	Not Active	Not Active	Not Active	Not Active	Not Active	–
O=c1[nH]c(=O)n([C@H]2C[C@H](O)[C@@H](CO)O2)cc1I [IDOXURIDINE]	Not Active	Not Active	Not Active	Not Active	Not Active	Not Active	Not Active	Not Active	Not Active	Not Active	–
CC1Cc2ccccc2N1NC(=O)c1ccc(Cl)c(S(N)(=O)=O)c1 (stereo not given) [INDAPAMIDE]	Not Active	Not Active	Not Active	Not Active	Not Active	Not Active	Not Active	Not Active	Not Active	–	2920
Nc1nc(N)nc(-c2cc(Cl)ccc2Cl)n1.O=C(O)/C=C\C(=O)O [IRSOGLADINE MALEATE]	Not Active	Not Active	Not Active	Not Active	Not Active	Not Active	Not Active	Not Active	Not Active	Not Active	–
CCC(C)n1ncn(-c2ccc(N3CCN(c4ccc(OCC5COC(Cn6cncn6)(c6ccc(Cl)cc6Cl)O5)cc4)CC3)cc2)c1=O (stereo not given) [ITRACONAZOLE]	Not Active	Not Active	Not Active	Not Active	Not Active	Not Active	Not Active	Not Active	Not Active	Not Active	–
CCCCN1CCCC[C@H]1C(=O)Nc1c(C)cccc1C [LEVOBUPIVACAINE]	Not Active	Not Active	Not Active	Not Active	Not Active	Not Active	Not Active	Not Active	Not Active	Not Active	–
Sc1ncnc2nc[nH]c12 [MERCAPTOPURINE ANHYDROUS]	Not Active	Not Active	Not Active	Not Active	Not Active	Not Active	Not Active	Not Active	Not Active	Not Active	–
C[C@](N)(Cc1ccc(O)c(O)c1)C(=O)O [METHYLDOPA]	Not Active	Not Active	Not Active	Not Active	Not Active	Not Active	Not Active	Not Active	Not Active	–	2130
